Results on 4 compounds are retold here after publication PMC3190057 (Food and chemical toxicology : an international journal …, 2011).

In data set [1] the test system is P-gp. The data set can be described thus: Immunofluorescence staining and imaging of membrane P-gp. Type of data set: cell-based, human. To be noted: LS-180 cells, 25 μM, 48 h, mean ± SD (n=4).
Data set [2] relates to P-gp. The data set can be described thus: In vitro induction of P-gp expression, Western blotting. The following applies: LS-180 cells, 25 μM, 48 h, Western blot densitometry, P-gp/β-actin. The data set is classed as cell-based, human.
The test system of data set [3] is P-gp. The data set can be described thus: P-gp functional activity, rhodamine 123 uptake with or without 100 μM verapamil. The following applies: LS-180 cells; for Emax (fold ↑ in P-gp activity): Hill equation fit; for increase in P-gp activity: 48 h.
In data set [4] the test system is P-gp. Kind of data set: in vitro. To be noted: human.
The next data set concerns LS-180 cells. Kind of data set: Toxicity to LS-180 cells during the induction treatment. The data set is classed as cell-based, human.
The conditions of data set [5]: human subjects, oral administration, cited from earlier work.

Values joined by “and” are separate entries in the source; they are usually repeats but may differ in a detail not shown here. Identical values can stand only once.

As for `C/C=C(/C=O)[C@@H](CC=O)CC(=O)OCCc1ccc(O)cc1` [oleocanthal, (-)-Oleocanthal], the “fold-increase in membrane P-gp expression compared to the control” value with P-gp [1] is 9.3 ± 0.37 fold. Further, the “fold increase in the expression of P-gp protein compared to control” value in the data set on P-gp [2] was 2.3-3.0 fold and 2.3 fold. In addition, the “Emax (fold ↑ in P-gp activity)” value in the data set with P-gp [3] is 4.5 fold. The same compound had an EC50 at 48 h in the data set with P-gp [4] of 14 µM.
Regarding `CC(C)=CCC/C(C)=C/CC/C(C)=C/CC[C@]1(C)CCc2cc(O)c(C)c(C)c2O1` [γ-tocotrienol, γ-Tocotrienol], the “fold-increase in membrane P-gp expression compared to the control” value in the data set on P-gp [1] amounted to 4.6 ± 0.39 fold. Also, the “fold increase in the expression of P-gp protein compared to control” value in the data set on P-gp [2] was 2.3-3.0 fold and 2.5 fold. Besides, the “concentration toxic to the cells” value with LS-180 cells was more than 25 µM. Further, the “increase in P-gp activity” value in the data set on P-gp [3] (10 μM) is reported as more than 45%. The “Emax (fold ↑ in P-gp activity)” value in the data set with P-gp [3] stood at 1.7 fold. Further, in the data set on P-gp [4] (LS-180 cells, probe rhodamine 123 (1 μg/mL), with verapamil 100 μM), the response was half-maximal at 5.9 µM (EC50 at 48 h).
For `CO[C@H]1/C=C/O[C@@]2(C)Oc3c(C)c(O)c4c(O)c(c(/C=N/N5CCN(C)CC5)c(O)c4c3C2=O)NC(=O)/C(C)=C\C=C\[C@H](C)[C@H](O)[C@@H](C)[C@@H](O)[C@@H](C)[C@H](OC(C)=O)[C@@H]1C` [rifampicin, Rifampicin, reference compound], the “decrease in digoxin area under the plasma curve (AUC)” value in data set [5] (ref Greiner et al., 1999) is reported as 30%. Also, the “decrease in risperidone area under the plasma curve (AUC)” value in data set [5] (ref Kim et al., 2008) was 51%. In the data set with P-gp [2], the “fold increase in the expression of P-gp protein compared to control” value came to 5 fold. The results for the “increase in P-gp activity” value with P-gp [3] (5 μM) and with P-gp [3] (25 μM) were 180% and 230%, respectively. The “Emax (fold ↑ in P-gp activity)” value in the data set on P-gp [3] was 4.4 fold. In the data set on P-gp [4], this compound registered a concentration giving a half-maximal response (EC50) at 48 h of 26.8 µM.
With `C[C@H]1[C@H](C)CC[C@]2(C(=O)O)CC[C@]3(C)C(=CC[C@@H]4[C@@]5(C)C[C@@H](O)[C@H](O)[C@@](C)(CO)[C@@H]5CC[C@]43C)[C@H]12` [asiatic acid, Asiatic acid], in the data set with P-gp [1], the “fold-increase in membrane P-gp expression compared to the control” value is listed as 2.5 ± 0.95 fold. For the same compound, the “fold increase in the expression of P-gp protein compared to control” value with P-gp [2] was 2.3-3.0 fold and 2.6 fold. The “increase in P-gp activity” value in the data set on P-gp [3] (25 μM) is recorded as more than 45%. In the data set on P-gp [3], the “Emax (fold ↑ in P-gp activity)” value came to 1.5 fold. A half-maximal response in the data set on P-gp [4] (EC50 at 48 h) required 11.3 µM.
